Laboratory results: the NIST ThermoML archive (doi:10.1016/j.tca.2010.03.028)

Assays:
[1] = xn = mol fraction of the nth substance listed; settings: 308.15 K, 101 kPa, Liquid; for excess molar volume: Direct dilatometry; for speed of sound: Linear variable-path acoustic interferometer
[2] = excess molar enthalpy (molar enthalpy of mixing); xn = mol fraction of the nth substance listed; settings: 308.15 K, 101 kPa, Liquid, Calvet calorimetry

C1CCOCC1 [tetrahydropyran] + CCCCCCC
Settings	excess molar enthalpy [kJ/mol]	excess molar volume [m3/mol]	speed of sound [m/s]
[1], x1 = 0.0543	–	5.7e-08	–
[1], x1 = 0.0833	–	–	1100
[1], x1 = 0.113	–	1.11e-07	–
[1], x1 = 0.1323	–	–	1107
[1], x1 = 0.1977	–	–	1117
[1], x1 = 0.2031	–	1.77e-07	–
[1], x1 = 0.2396	–	–	1127
[1], x1 = 0.2613	–	2.1e-07	–
[1], x1 = 0.2998	–	2.28e-07	–
[1], x1 = 0.3245	–	–	1137
[1], x1 = 0.3475	–	2.45e-07	–
[1], x1 = 0.3812	–	–	1145
[1], x1 = 0.3991	–	2.58e-07	–
[1], x1 = 0.4396	–	–	1154
[1], x1 = 0.4441	–	2.65e-07	–
[1], x1 = 0.4964	–	2.68e-07	–
[1], x1 = 0.5033	–	–	1163
[1], x1 = 0.5601	–	2.64e-07	–
[1], x1 = 0.5684	–	–	1172
[1], x1 = 0.6107	–	2.55e-07	–
[1], x1 = 0.6161	–	–	1178
[1], x1 = 0.688	–	–	1187
[1], x1 = 0.7123	–	2.2e-07	–
[1], x1 = 0.7646	–	–	1197
[1], x1 = 0.8011	–	1.72e-07	–
[1], x1 = 0.8223	–	–	1204
[1], x1 = 0.8999	–	9.8e-08	–
[1], x1 = 0.9044	–	–	1213
[2], x1 = 0.0842	0.162	–	–
[2], x1 = 0.1777	0.333	–	–
[2], x1 = 0.2324	0.422	–	–
[2], x1 = 0.3339	0.552	–	–
[2], x1 = 0.3741	0.589	–	–
[2], x1 = 0.4413	0.63	–	–
[2], x1 = 0.5008	0.642	–	–
[2], x1 = 0.5989	0.614	–	–
[2], x1 = 0.6821	0.544	–	–
[2], x1 = 0.7124	0.509	–	–
[2], x1 = 0.7654	0.436	–	–
[2], x1 = 0.8325	0.326	–	–
[2], x1 = 0.8778	0.243	–	–
[2], x1 = 0.9213	0.158	–	–
